Experimental data taken from US20180168208A1 (priority 2014, published 2018).
Where two headings read alike, the source gives them in different places.

Columns and labels:
cat T1R1/T1R3 receptor = target: T1, cat T1R1/T1R3 receptor (Felis catus, UniProt A0ABI7Z2I4); experiment: cell-based
T1 sequence (A0ABI7Z2I4 171-420): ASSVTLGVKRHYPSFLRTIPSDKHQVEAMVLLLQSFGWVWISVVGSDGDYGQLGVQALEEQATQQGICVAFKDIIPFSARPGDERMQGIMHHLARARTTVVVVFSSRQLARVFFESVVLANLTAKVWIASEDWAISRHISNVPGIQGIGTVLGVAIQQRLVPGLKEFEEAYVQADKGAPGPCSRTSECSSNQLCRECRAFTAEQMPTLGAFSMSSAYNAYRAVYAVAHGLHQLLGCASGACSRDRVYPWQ
T1 sequence (Q49KI5 25-865 E206Q/N523D/F654L partner): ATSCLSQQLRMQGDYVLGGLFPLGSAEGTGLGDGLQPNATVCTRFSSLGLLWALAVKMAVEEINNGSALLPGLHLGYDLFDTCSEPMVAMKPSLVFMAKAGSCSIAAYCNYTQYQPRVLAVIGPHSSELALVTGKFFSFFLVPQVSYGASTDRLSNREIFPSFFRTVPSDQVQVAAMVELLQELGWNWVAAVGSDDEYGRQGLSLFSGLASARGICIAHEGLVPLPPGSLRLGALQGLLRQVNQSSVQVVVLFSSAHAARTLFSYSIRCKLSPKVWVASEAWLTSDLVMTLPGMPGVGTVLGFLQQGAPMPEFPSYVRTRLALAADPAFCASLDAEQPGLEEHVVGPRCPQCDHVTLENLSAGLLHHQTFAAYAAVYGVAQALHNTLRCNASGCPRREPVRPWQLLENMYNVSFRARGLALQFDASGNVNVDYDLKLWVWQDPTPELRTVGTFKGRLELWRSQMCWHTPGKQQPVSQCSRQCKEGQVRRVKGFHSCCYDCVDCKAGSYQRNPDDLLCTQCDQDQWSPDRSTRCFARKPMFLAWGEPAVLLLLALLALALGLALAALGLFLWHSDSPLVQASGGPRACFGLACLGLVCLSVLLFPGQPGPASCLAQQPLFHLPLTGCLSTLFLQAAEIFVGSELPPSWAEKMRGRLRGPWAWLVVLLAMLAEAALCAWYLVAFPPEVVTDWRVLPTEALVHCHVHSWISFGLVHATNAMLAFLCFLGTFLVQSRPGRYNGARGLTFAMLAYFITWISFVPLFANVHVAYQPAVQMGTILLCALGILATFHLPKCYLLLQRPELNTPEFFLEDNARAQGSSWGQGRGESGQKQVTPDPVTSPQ
Procedure, shortened: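 HEK293 cells stably expressing T1R3 with inducible T1R1, treated with nucleotide derivatives alone or combined with amino acids and/or nucleotides. Activation read as intracellular calcium change by calcium-sensitive fluorescent dye and/or luminescent reporter. Cells expressing T1R3 without T1R1 served as control.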

T1R1/T1R3 receptor [1] = target: T2, T1R1/T1R3 receptor (Felis catus, UniProt E3UMS2); experiment: cell-based; format: cell-based
From the text: (§1) HEK293 cells that stably express T1R3 and inducibly express T1R1 were exposed to transmembrane compounds alone or in combination with one or more amino acids and/or one or more nucleotides to activate the umami receptor. Activation of the T1R1/T1R3 receptor was detected by a change in intracellular calcium levels using a calcium sensitive fluorescent dye. Cells that express T1R3 but not T1R1 were used as a control. A FLIPR® Tetra or a FlexStation® 3 was used for data capture.
(§2) In each experiment, serial dilutions of up to 10 mM of the transmembrane compound were added to the T1R1/T1R3-expressing cells.

T1R1/T1R3 receptor [2] = target: T2, T1R1/T1R3 receptor; experiment: cell-based
From the text: HEK293 cells that stably express T1R3 and inducibly express T1R1 were exposed to nucleotide derivatives alone to activate the umami receptor. Activation of the T1R1/T1R3 receptor was detected by a change in intracellular calcium levels using a calcium sensitive fluorescent dye. Cells that express T1R3 but not T1R1 were used as a control. A FLIPR® Tetra or a FlexStation® 3 was used for data capture.
HEK293 cells that stably express T1R3 and inducibly express T1R1 were exposed to nucleotide derivatives alone or in combination with one or more amino acids and/or one or more nucleotides to activate the umami receptor. Activation of the T1R1/T1R3 receptor was detected by a change in intracellular calcium levels using a calcium sensitive fluorescent dye and/or a luminescent reporter system. Cells that express T1R3 but not T1R1 were used as a control. A FLIPR® Tetra or a FlexStation® 3 was used for data capture.
as §1, §2

T1R1/T1R3 receptor [3] = target: T2, T1R1/T1R3 receptor; experiment: Example 8: PAM screening of transmembrane compounds with GMP and Ala on T1R1/T1R3 in HEK293 cells; format: cell-based, cat; conditions: in the presence of GMP and Alanine
From the text: HEK293 cells that stably express T1R3 and inducibly express T1R1 were exposed to transmembrane compound alone or in combination with Ala and GMP to activate the umami receptor. Activation of the T1R1/T1R3 receptor was detected by a change in intracellular calcium levels using a calcium sensitive fluorescent dye and/or a luminescent reporter system. […] A FLIPR® Tetra or a FlexStation® 3 was used for data capture.
Dose response curves were generated for each transmembrane compound at concentrations of 0 (buffer only), 0.01, 0.1 and 1 mM, wherein each of the three concentrations of transmembrane compound was tested in combination with 0.03 mM GMP+100 mM Ala (T1); 0.6 mM GMP+10 mM Ala (T2); 0.1 mM GMP+60 mM Ala (T3) and 0.3 mM GMP+60 mM Ala (T4). The T4 mixture was also tested in a 2-fold dilution series (the T4(×) Concentration). In these experiments, the first test concentration was 2× (2 times) the T4 concentration. The subsequent test concentrations were 2-fold dilutions from that (1×, 0.5×etc.). This dilution series was tested with or without the addition of the test compound at a constant 0.3 mM concentration.
Activation of the umami receptor was also determined in the presence of 1 mM GMP+100 mM Ala to generate a “maximum” umami receptor activation level.

[4] = EC50 (effect with 0.2 mM IMP), positive controls measured with 0.2 mM IMP
[5] = EC50 (effect with 0.2 mM IMP), control compounds, with 0.2 mM IMP, Table 25
[6] = EC50 (mM), +IMP (0.2 mM), in the presence of 0.2 mM IMP
[7] = in the presence of 0.2 mM IMP, relative to alanine
[8] = threshold concentration in the presence of 0.2 mM IMP

Row | Compound | EC50 (cat T1R1/T1R3 receptor; read-out: EC50) | EC50 (T1R1/T1R3 receptor [1]; [4]) | EC50 (T1R1/T1R3 receptor [2]; [5]) | EC50 (T1R1/T1R3 receptor [2]; [6]) | Max resp % of Ala, +IMP (0.2 mM) (T1R1/T1R3 receptor [2]; [7]) | Thres (mM), +IMP (0.2 mM) (T1R1/T1R3 receptor [2]; [8]) | further results
1 | N[C@@H](Cc1c[nH]cn1)C(=O)O [L-Histidine, L-histidine] | 10.2 ± 1.7 mM | 10.2 ± 1.7 mM | 15.3 ± 3.2 mM | 15.3 mM | 36.3% | 10.0 mM | –
2 | N[C@@H](CO)C(=O)O [L-Serine, serine] | 31.5 ± 2.3 mM | 31.5 ± 2.3 mM | 15.1 ± 2.3 mM | 15.1 mM | 100.0% | 3.0 mM | –
3 | O=C(CN1C(=O)C(=O)N(Cc2ccccc2)C1=O)c1ccc2c(c1)OCCCO2 [1-benzyl-3-(2-(3,4-dihydro-2H-benzo[b][1,4]dioxepin-7-yl)-2-oxoethyl)imidazolidine-2,4,5-trione] | – | – | – | – | – | – | PAM profile assessment (PAM activity) (T1R1/T1R3 receptor [3]): PAM activity
4 | O=P(O)(O)OP(=O)(O)OP(=O)(O)OC[C@H]1O[C@@H](n2cnc3c(Cl)ncnc32)[C@H](O)[C@@H]1O [6-Chloropurine riboside-5′-O-triphosphate] | – | – | – | – | 30.2% | 0.003 mM | EC50 (cat T1R1/T1R3 receptor): > 0.03 mM; Threshold (cat T1R1/T1R3 receptor): 0.01 mM; Max resp % of IMP, +Alanine (20 mM) (T1R1/T1R3 receptor [2]): 50.4%; Thres (mM), +Alanine (20 mM) (T1R1/T1R3 receptor [2]): 0.01 mM; EC50 (T1R1/T1R3 receptor [2]; alone in buffer, read-out: T1R1/T1R3 EC50 alone in buffer): > 0.03 mM; EC50 (T1R1/T1R3 receptor [2]; compound alone in buffer, read-out: EC50 (mM), +buffer (alone)): > 0.3 mM; Activity (T1R1/T1R3 receptor [2]; overall call: active or N/A (not active) on T1R1/T1R3): active; EC50 (T1R1/T1R3 receptor [2]; read-out: EC50 (mM), +Alanine (20 mM)): > 0.3 mM; EC50 (T1R1/T1R3 receptor [2]; read-out: EC50 (mM), +Alanine (20 mM) + IMP (0.2 mM)): > 0.3 mM; EC50 (T1R1/T1R3 receptor [2]; read-out: EC50 (mM), +IMP (0.2 mM), in the presence of 0.2 mM IMP): > 0.3 mM; EC50 (T1R1/T1R3 receptor [2]; read-out: T1R1/T1R3 EC50 +0.2 mM IMP, +0.2 mM IMP): > 0.03 mM; EC50 (T1R1/T1R3 receptor [2]; read-out: T1R1/T1R3 EC50 +20 mM L-alanine): > 0.03 mM; EC50 (T1R1/T1R3 receptor [2]; read-out: T1R1/T1R3 EC50 +20 mM L-alanine + 0.2 mM IMP): > 0.03 mM
5 | N[C@@H](Cc1c[nH]c2ccccc12)C(=O)O [L-Tryptophan, tryptophan] | 0.9 ± 0.1 mM | 0.9 ± 0.1 mM | 0.5 ± 0.1 mM | 0.5 mM | 86.8% | 0.1 mM | –
6 | N[C@@H](CS)C(=O)O [L-Cysteine, cysteine] | 39.5 ± 1.9 mM | 39.5 ± 1.9 mM | 43.9 ± 5.6 mM | 43.9 mM | 74.6% | 10.0 mM | Max resp ΔF/F, +IMP (0.2 mM) (T1R1/T1R3 receptor [2]; in the presence of 0.2 mM IMP): 0.5800 ΔF/F
7 | N[C@@H](Cc1ccccc1)C(=O)O [L-Phenylalanine, reference compound] | 1.9 ± 0.1 mM | 1.9 ± 0.1 mM | 0.5 ± 0.1 mM | 0.5 mM | 75.9% | 0.1 mM | Max resp ΔF/F, +IMP (0.2 mM) (T1R1/T1R3 receptor [2]; in the presence of 0.2 mM IMP): 0.5900 ΔF/F
8 | O=C(CN1C(=O)C(=O)N(Cc2ccccc2)C1=O)c1ccc(Cl)s1 [1-benzyl-3-(2-(5-chlorothiophen-2-yl)-2-oxoethyl)imidazolidine-2,4,5-trione] | – | – | – | – | – | – | PAM profile assessment (PAM activity) (T1R1/T1R3 receptor [3]): PAM activity
9 | CSCC[C@H](N)C(=O)O [L-Methionine, methionine] | – | 25.5 ± 3.7 mM | – | – | – | – | EC50 (cat T1R1/T1R3 receptor): 25.5 ± 3.7 mM; Max resp % of Ala, +IMP (0.2 mM) (T1R1/T1R3 receptor [2]): 45.0%; Thres (mM), +IMP (0.2 mM) (T1R1/T1R3 receptor [2]): 30.0 mM; EC50 (T1R1/T1R3 receptor [2]; EC50 (effect with 0.2 mM IMP)): 33.9 ± 1.5 mM; EC50 (T1R1/T1R3 receptor [2]; EC50 (mM), +IMP (0.2 mM)): 33.9 mM
10 | Nc1nc2c(ncn2[C@@H]2O[C@H](COP(=O)(O)O)[C@@H](O)[C@H]2O)c(=O)[nH]1 [GMP, guanosine monophosphate, reference compound] | – | 0.05 ± 0.004 mM | 0.09 ± 0.02 mM | – | – | – | EC50 (cat T1R1/T1R3 receptor): 0.02 mM; Threshold (cat T1R1/T1R3 receptor): 0.008 mM; EC50 (T1R1/T1R3 receptor [1]): 0.05 ± 0.02 mM; EC50 (T1R1/T1R3 receptor [1]; alone in buffer, read-out: EC50 - alone): 0.04 ± 0.01 mM
11 | N[C@@H](Cc1ccc(O)cc1)C(=O)O [L-Tyrosine, tyrosine] | 10.3 ± 0.9 mM | – | 9.3 ± 1.7 mM | 9.3 mM | 38.0% | 3.0 mM | –
